# “Also recorded” adds a separate entry of the source. Read-outs that look alike come from different tables or passages of the source.
# What was measured:
# [1] = test system: SARS-CoV-2 virus; settings: previous studies, Wang et al., 2020; cited from earlier work
# [2] = test system: SARS-CoV-2 virus (nCoV-2019BetaCoV/Wuhan/WIV04/2019 isolate); assay: microbe, parasite or virus in culture; assay type: cell-based; settings: for Copy number of viral genome (MOI = 0.01): MOI 0.01, Vero E6 supernatant; for Copy number of viral genome (MOI = 0.01) / Copy number of viral genome (MOI = 0.05): 48 h, copy number per milliliter; for Copy number of viral genome (MOI = 0.05): MOI 0.05, Vero E6 supernatant; for EC50: Severe acute respiratory syndrome coronavirus 2, Vero C1008, Example 1, drug pretreatment 1 hour, read-out: EC50
# [3] = Drug cytotoxicity on cells, CellTiter-Glo kit; assay type: cell-based; settings: African green monkey; Vero-E6 cells, 24 hours; unit inferred
# Description: (§1) 1.5.1 Vero E6 cell culture: 0.1 ml of 0.25% trypsin, 5 ml of 0.02% EDTA were added to a culture flask full of cells, the digestion was carried out at 37° C. for 5 minutes, then the digestion solution was discarded, the cell culture solution was added and then mixed by pipetting up-down. The cells were subcultured at 1:3, reached confluence within 3 days, formulated into 100,000 cells per ml, inoculated to a 96-well cell culture plate, 0.1 ml per well, and cultured at 37° C., 5% CO2 for 24 hours, and the cells grew into monolayer was used for experiment.
# (§2) 1.5.2 Experiment of Drug Cytotoxicity on Cells:
# (§3) The detection of drug cytotoxicity was determined using CellTiter-Glo kit (Promega). Specific steps were as follows:
# (§4) (1) 1×10^4 Vero-E6 cells were inoculated in a 96-well plate and cultured at 37° C. for 8 hours.
# (§5) (2) The stock solution of drug was diluted with MEM medium containing 2% FBS to the desired concentration, the original medium in the 96-well plate was discarded, and 100 μL of the drug-containing MEM medium was taken and added to the corresponding wells, so that the final concentrations of drug in the wells were those shown in Tables 1 to 3, respectively, and three replicate wells were made for each concentration. At the same time, a vehicle control (adding DMSO or PBS, and 2% FBS-containing MEM medium without drug to the cell wells) and a blank control (adding DMSO and 2% FBS-containing MEM medium to the wells without cells) were set. After the addition of drug, the cells were incubated at 37° C. for 24 hours.
# (§6) (3) 100 μL of CellTiter-Glo solution (Promega) was added to the wells to be tested, and mixed by shaking for 2 min to fully lyse the cells, incubated at room temperature for 10 minutes, and readings of chemiluminescence signals […] were obtained on a microplate reader (purchased from Molecular Devices, model: SpectraMax M5). The cell viability was calculated by taking the readings into the following formula:
# (§7) Cell viability (%)=(A(drug treatment group)−A(blank control))/(A(vehicle control)−A(blank control))×100%
# (§8) where A represented the reading on the microplate reader.
# [4] = test system: Vero-E6 cells; assay: Drug cytotoxicity on cells, CellTiter-Glo kit; assay type: cell-based; settings: Vero-E6, 24 hours
# Description: as §1, §2, §3, §4, §5, §6, §7, §8
# [5] = test system: SARS-CoV-2 virus (nCoV-2019BetaCoV/Wuhan/WIV04/2019 isolate); assay: microbe, parasite or virus in culture; assay type: cell-based; settings: for EC50: Severe acute respiratory syndrome coronavirus 2, Vero C1008, Example 2, no drug pretreatment, read-out: EC50
smiles,measurement,setting,value
"CCN(CC)CCCC(C)Nc1ccnc2cc(Cl)ccc12 (stereo not drawn) [Chloroquine phosphate, chloroquine phosphate]",Inhibition of replication of SARS-CoV-2 virus (in words),[1],can effectively inhibit the replication
same,Copy number of viral genome (MOI = 0.01),[2]; 0.21 μM,3451032833
same,Copy number of viral genome (MOI = 0.05),[2]; 0.21 μM,5871676583
same,Copy number of viral genome (MOI = 0.01),[2]; 0.62 μM,2407772083
same,Copy number of viral genome (MOI = 0.05),[2]; 0.62 μM,5663562000
same,Copy number of viral genome (MOI = 0.01),[2]; 1.85 μM,1500455250
same,Copy number of viral genome (MOI = 0.05),[2]; 1.85 μM,4521430250
same,Copy number of viral genome (MOI = 0.01),[2]; 5.56 μM,692991541
same,Copy number of viral genome (MOI = 0.05),[2]; 5.56 μM,1814432458
same,Copy number of viral genome (MOI = 0.01),[2]; 16.67 μM,11907226
same,Copy number of viral genome (MOI = 0.05),[2]; 16.67 μM,52973263
same,Copy number of viral genome (MOI = 0.01),[2]; 50 μM,1019575
same,Copy number of viral genome (MOI = 0.05),[2]; 50 μM,1914748
same,Inhibition of SARS-CoV-2 (in words),"[2]; Example 1, in vitro, Vero E6",obvious inhibitory effects; also recorded: inhibitory activity
same,EC50,"[2]; MOI 0.01, Vero E6",1.54 µM
same,EC50,"[2]; MOI 0.05, Vero E6",3.77 µM
same,CC50 at 24 h,[3],92.9 µM
same,Cell viability (% of vehicle control),[4]; 3.70 μM,93.26 % of vehicle control
same,Cell viability (% of vehicle control),[4]; 11.11 μM,90.60 % of vehicle control
same,Cell viability (% of vehicle control),[4]; 33.33 μM,72.67 % of vehicle control
same,Cell viability (% of vehicle control),[4]; 66.67 μM,68.35 % of vehicle control
same,Cell viability (% of vehicle control),[4]; 100 μM,44.84 % of vehicle control
same,Cell viability (% of vehicle control),[4]; 200 μM,41.01 % of vehicle control
same,Cell viability (% of vehicle control),[4]; 300 μM,0.63 % of vehicle control
same,Inhibition of SARS-CoV-2 (in words),"[5]; Example 2, drug added after virus infection of cells",obvious inhibitory effects; also recorded: inhibitory activity
same,EC50,"[5]; MOI 0.01, Vero E6",4.52 µM
same,EC50,"[5]; MOI 0.05, Vero E6",3.63 µM

# Source: patent publication US20230119764A1, “APPLICATION OF DIMETHYL BERBAMINE COMPOUND IN INHIBITION OF SARS-COV-2” (priority 2020, published 2023)
